Reference: US20110039763A1, “TARGETED ANTIMICROBIAL MOIETIES” (C3 JIAN, INC., priority 2009, published 2011)
Entries after “also recorded” stand apart in the source; their conditions may differ.

Key:
microorganisms [1] = test: Peptide activities: targeting/binding, antimicrobial, growth or phenotype altering (Tables 7, 8); format: cell-based; details: peptides having multiple activities
microorganisms [2] = test: Targeting peptide binding to target microorganisms (Tables 3, 10, 12); details: microorganism(s) the targeting peptide binds; binding in aqueous buffers that varied with peptide solubility, preferably 1x PBS
microorganisms [3] = test: Morphology, biofilm and growth disrupting peptides (Table 5); format: cell-based; set-up: key: A: Peptide aggregates; B: Less hyphal formation; Clumps; Diffuse clumps and small polyps; F: Diffuse growth; H: Thin; I: Growth inhibition; Microcolony formation; Rippled; Small polyps; Thick; W: Halo formation on top, microlonies on bottom; details: for Organism, effect: S. mutans: class symbol
Source text: In certain embodiments peptides that induce alterations in phenotype or other biological activities can also be used as antimicrobial effector moieties.

Substance	Activities (microorganisms [1])	Target(s) (microorganisms [2])	Organism, effect: MRSA (microorganisms [3])	Organism, effect: M. luteus (microorganisms [3])	Organism, effect: S. epidermidis (microorganisms [3])	Organism, effect: S. mutans (microorganisms [3])	Organism, effect: S. pneumoniae (microorganisms [3])	Organism, effect: C. jeikeium (microorganisms [3])	Organism, effect: B. subtilis (microorganisms [3]; B. subtilis)	Organism, effect: C. jejuni (microorganisms [3]; C. jejuni)
PF-015: peptide having multiple activities (SIDKRNLYNLKYYE; Peptide with targeting and/or antimicrobial activity)	G B	E. faecalis; also recorded: C. jeikeium	MRSA (W)	–	–	–	–	–	–	–
PF-017: peptide having multiple activities (ESIIE; Peptide with targeting and/or antimicrobial activity)	G B	E. coli	MRSA (M)	–	–	–	–	–	–	–
PF-020: peptide having multiple activities (MKIILLLFLIFGFIVVVTLKSEHQLTLFSI; Peptide with targeting and/or antimicrobial activity)	G B	S. epidermidis and M. luteus and C. albicans and MRSA and S. pneumoniae and E. faecalis	MRSA (C)	M. luteus (C)	S. epidermidis (C)	S. mutans (F)	S. pneumoniae (D)	–	–	–
PF-021: peptide having multiple activities (FSLNFSKQKYVTVN; Peptide with targeting and/or antimicrobial activity)	G B	S. epidermidis; also recorded: M. luteus; also recorded: P. mirabilis; also recorded: E. coli; also recorded: C. albicans; also recorded: E. faecalis; also recorded: C. jeikeium	MRSA (R)	M. luteus (A)	S. epidermidis (A)	–	–	C. jeikeium (R)	–	–
PF-024: peptide having multiple activities (DLRKAK; Peptide with targeting and/or antimicrobial activity)	G B	M. luteus and C. albicans and MRSA and E. faecalis and C. jeikeium	MRSA (M)	–	S. epidermidis (D)	–	–	–	–	–
PF-025: peptide having multiple activities (LLIIFRLWLELKWKNKK; Peptide with targeting and/or antimicrobial activity)	G B	S. epidermidis and M. luteus and P. mirabilis and E. coli and P. aeruginosa and MRSA and E. faecalis and C. jejuni	MRSA (R)	M. luteus (A)	S. epidermidis (S)	–	–	C. jeikeium (A)	–	–
PF-026: peptide having multiple activities (SIHFIN; Peptide with targeting and/or antimicrobial activity)	G B	S. epidermidis and M. luteus and P. mirabilis and C. albicans and MRSA and E. faecalis and C. jeikeium	MRSA (M)	–	–	–	–	–	–	–
PF-027: peptide having multiple activities (HNARKYLEFISQKIDGDKLTKEDSL; Peptide with targeting and/or antimicrobial activity)	G B	M. luteus and MRSA and E. faecalis and C. jejuni	MRSA (M)	–	S. epidermidis (D)	–	–	–	–	–
PF-029: peptide having multiple activities (NSTNE; Peptide with targeting and/or antimicrobial activity)	G B	S. epidermidis; also recorded: M. luteus; also recorded: C. albicans; also recorded: C. jejuni	MRSA (M)	–	–	–	–	–	–	–
PF-031: peptide having multiple activities (MPHHSTTSSRIVVPAHQSNMASTPNLSITP; Peptide with targeting and/or antimicrobial activity)	G B	M. luteus; also recorded: C. albicans	MRSA (M)	–	–	–	–	–	–	–
PF-034: peptide having multiple activities (EPKKKHFPKMESASSEP; Peptide with targeting and/or antimicrobial activity)	G B	M. luteus	–	–	S. epidermidis (A)	–	–	–	–	–
PF-035: peptide having multiple activities (SFYESY; Peptide with targeting and/or antimicrobial activity)	G B	S. epidermidis and M. luteus and E. coli and C. albicans and MRSA and C. jeikeium and C. jejuni	MRSA (M)	–	–	–	–	–	–	–
PF-036: peptide having multiple activities (ILNRLSRIVSNEVTSLIYSLK; Peptide with targeting and/or antimicrobial activity)	G B	S. epidermidis and M. luteus and P. mirabilis and E. coli and C. albicans and MRSA and S. pneumoniae and C. jejuni	MRSA (R)	M. luteus (A)	S. epidermidis (S)	–	–	C. jeikeium (A)	–	–
PF-041: peptide having multiple activities (ELLVILPGFI; Peptide with targeting and/or antimicrobial activity)	G B	MRSA	MRSA (M)	–	S. epidermidis (R)	–	–	–	–	–
PF-043: peptide having multiple activities (MIKNETAYQMNELLVIRSAYAK; Peptide with targeting and/or antimicrobial activity)	G B	M. luteus; also recorded: C. jejuni	MRSA (R)	M. luteus (C)	S. epidermidis (D)	–	–	C. jeikeium (A)	–	–
PF-045: peptide having multiple activities (LDINDYRSTY; Peptide with targeting and/or antimicrobial activity)	G B	S. epidermidis; also recorded: E. coli; also recorded: E. faecalis; also recorded: C. jejuni	MRSA (S)	–	–	–	–	–	–	–
PF-046: peptide having multiple activities (LDFYLTKHLTLML; Peptide with targeting and/or antimicrobial activity)	G B	E. coli; also recorded: E. faecalis; also recorded: C. jeikeium	MRSA (R)	–	S. epidermidis (C)	–	–	C. jeikeium (R)	–	–
PF-048: peptide having multiple activities (LYFAFKKYQERVNQAPNIEY; Peptide with targeting and/or antimicrobial activity)	G B	S. epidermidis and M. luteus and E. coli and MRSA and C. jeikeium and C. jejuni	MRSA (W)	–	S. epidermidis (D)	–	–	C. jeikeium (S)	–	–
PF-049: peptide having multiple activities (AYYLKRREEKGK; Peptide with targeting and/or antimicrobial activity)	G B	S. epidermidis and MRSA and C. jeikeium and C. jejuni	MRSA (S)	–	–	–	–	–	–	–
PF-051: peptide having multiple activities (RFFNFEIKKSTKVDYVFAHVDLSDV; Peptide with targeting and/or antimicrobial activity)	G B	S. epidermidis and M. luteus and P. aeruginosa and C. albicans and MRSA and S. pneumoniae and E. faecalis	MRSA (D)	M. luteus (C)	S. epidermidis (D)	S. mutans (D)	S. pneumoniae (D)	–	–	–
PF-052: peptide having multiple activities (QELINEAVNLLVKSK; Peptide with targeting and/or antimicrobial activity)	G B	S. epidermidis and M. luteus and E. coli and MRSA and E. faecalis and C. jeikeium and C. jejuni	MRSA (R)	M. luteus (A)	S. epidermidis (S)	–	–	C. jeikeium (D)	–	–
PF-058: peptide having multiple activities (FADQSQDNA; Peptide with targeting and/or antimicrobial activity)	G B	S. epidermidis and M. luteus and E. coli and C. albicans and MRSA and C. jeikeium and C. jejuni	MRSA (M)	–	–	–	–	–	–	–
PF-061: peptide having multiple activities (GYNSYKAVQDVKTHSEEQRVTAKK; Peptide with targeting and/or antimicrobial activity)	G B	S. epidermidis; also recorded: S. pneumoniae	–	–	S. epidermidis (R)	–	S. pneumoniae (R)	–	B. subtilis (R)	C. jejuni (R)
PF-064: peptide having multiple activities (DYYGKE; Peptide with targeting and/or antimicrobial activity)	G B	E. coli	MRSA (M)	–	S. epidermidis (D)	–	–	–	–	–
